US12139477B2, “Compounds, salts thereof and methods for treatment of diseases” (ACADIA PHARMACEUTICALS INC., priority 2017, dated 2024)
Structures can show the parent of a compound that is named as a salt.

Columns and labels:
hCav1.2/β2/α2δ channels = hCav1.2/β2/α2δ channels (Homo sapiens, UniProt Q13936); test: CaV1.2 manual patch clamp, CHO cells (CR-CLE); format: cell-based
From the text: Stocks were maintained in cryogenic storage. […] Each culture dish was identified by a notation of channel name, passage number, and date.
Rationale for Selection of Ion Channel and Expression Systems: Reduction of ICa,L is associated with action potential shortening in atrial fibrillation (Van Wagoner, et al., Circ Res 85:428-436 (1999)) while augmentation of ICa,L current may produce action potential prolongation (Ahmmed, et al., Circ Res 86:558-570 (2000)) and early after depolarizations (January, et al., Circ Res 62:563-571 (1988)). ICa.L is produced by the combination of calcium channel subunits encoded by CACNA1C (α1-subunit), CACNB2 (β2-subunit) and CACNA2D1 (α2δ-subunit) cDNAs.
• Organism: Cricetulus griseus • Tissue: Ovary; transfected with human CACNA1C • (α1-subunit), CACNB2 (β2-subunit), and • CACNA2D1 (α2δ-subunit) cDNAs • Morphology: Epithelial • Age/Stage: Adult • Source Strain: ATCC, Manassas, VA • Source Substrain: CR-CLE
CHO Cell Culture Procedures: CHO cells were stably co-transfected with human CACNA1C (α1-subunit), CACNB2 (β2-subunit), and CACNA2D1 (α2δ-subunit) cDNAs. Stable transfectants were selected by coexpression of the cDNAs with antibiotic resistance genes for blasticidin, hygromycin, G418, and zeocin. Selection pressure was maintained by including these antibiotics in the culture medium. Cells were cultured in Ham's F12 Medium supplemented with 10% fetal bovine serum, penicillin-streptomycin (100 units/mL), blasticidin (10 μg/mL), zeocin (400 μg/mL), G418 (250 μg/mL) and hygromycin (250 μg/mL). To avoid Ca^2+-induced toxicity, verapamil (3 μmol/L) was added to the cultured cells.
hCav1.2/β2/α2δ-CHO is a tetracycline-inducible cell line. To induce expression, tetracycline at a final concentration of 1 μg/mL was added to media lacking the selection antibiotics. Currents were recorded greater than 16 hours post-induction.
Treatment Groups: All experiments were performed at room temperature. Each cell acted as its own control.
Each concentration was tested in at least three cells (n≥3).
Positive Control Group: The positive control article nifedipine (Sigma-Aldrich) was tested in two cells (n=2) at 0.1 μM. Previous results have shown that nifedipine at 0.1 μM inhibits hCav1.2 current by approximately 90%.
Electrophysiological Procedures: Cells were superfused with vehicle control solution. Micropipette solution for whole cell patch clamp recordings was composed of (mM): Cs-methanesulfonate (MES), 130; TEA-Cl, 20, MgCl2, 1; EGTA, 10; Mg-ATP, 4; Tris-GTP, 0.3, phosphocreatine di-(Tris) salt, 14, creatine phosphokinase, 50 U/mL, and HEPES, 10; pH adjusted to 7.2 with N-methyl-D-glucamine or CsOH. Micropipette solution was prepared in batches, aliquoted, stored frozen, and a fresh aliquot thawed each day. […] Before digitization, current records were low-pass filtered at one-fifth of the sampling frequency.
Experimental Procedures: Onset and steady inhibition was evaluated at a test potential of 0 mV (150 ms duration), repeated at ten-second intervals from a holding potential of −40 mV. Peak current was measured during the step to 0 mV. Peak current was monitored until a new steady state was achieved. hCav1.2 current was monitored until a new steady state was achieved and a steady state was maintained for at least 20 s before applying test article or positive control article formulations. […]
(§1) Nonlinear least squares fits were solved with the Solver add-in for Excel 2003 or later (Microsoft, Redmond, WA) and the IC50 was calculated.

[1] = target: T1, late hNav1.5 channel current (Homo sapiens, UniProt Q14524); test: NaV1.5 (for pimavanserin): late hNav1.5 current, HEK-293, ATX-II activated (CR-CLE); format: cell-based
T1 sequence (Q14524 whole entry): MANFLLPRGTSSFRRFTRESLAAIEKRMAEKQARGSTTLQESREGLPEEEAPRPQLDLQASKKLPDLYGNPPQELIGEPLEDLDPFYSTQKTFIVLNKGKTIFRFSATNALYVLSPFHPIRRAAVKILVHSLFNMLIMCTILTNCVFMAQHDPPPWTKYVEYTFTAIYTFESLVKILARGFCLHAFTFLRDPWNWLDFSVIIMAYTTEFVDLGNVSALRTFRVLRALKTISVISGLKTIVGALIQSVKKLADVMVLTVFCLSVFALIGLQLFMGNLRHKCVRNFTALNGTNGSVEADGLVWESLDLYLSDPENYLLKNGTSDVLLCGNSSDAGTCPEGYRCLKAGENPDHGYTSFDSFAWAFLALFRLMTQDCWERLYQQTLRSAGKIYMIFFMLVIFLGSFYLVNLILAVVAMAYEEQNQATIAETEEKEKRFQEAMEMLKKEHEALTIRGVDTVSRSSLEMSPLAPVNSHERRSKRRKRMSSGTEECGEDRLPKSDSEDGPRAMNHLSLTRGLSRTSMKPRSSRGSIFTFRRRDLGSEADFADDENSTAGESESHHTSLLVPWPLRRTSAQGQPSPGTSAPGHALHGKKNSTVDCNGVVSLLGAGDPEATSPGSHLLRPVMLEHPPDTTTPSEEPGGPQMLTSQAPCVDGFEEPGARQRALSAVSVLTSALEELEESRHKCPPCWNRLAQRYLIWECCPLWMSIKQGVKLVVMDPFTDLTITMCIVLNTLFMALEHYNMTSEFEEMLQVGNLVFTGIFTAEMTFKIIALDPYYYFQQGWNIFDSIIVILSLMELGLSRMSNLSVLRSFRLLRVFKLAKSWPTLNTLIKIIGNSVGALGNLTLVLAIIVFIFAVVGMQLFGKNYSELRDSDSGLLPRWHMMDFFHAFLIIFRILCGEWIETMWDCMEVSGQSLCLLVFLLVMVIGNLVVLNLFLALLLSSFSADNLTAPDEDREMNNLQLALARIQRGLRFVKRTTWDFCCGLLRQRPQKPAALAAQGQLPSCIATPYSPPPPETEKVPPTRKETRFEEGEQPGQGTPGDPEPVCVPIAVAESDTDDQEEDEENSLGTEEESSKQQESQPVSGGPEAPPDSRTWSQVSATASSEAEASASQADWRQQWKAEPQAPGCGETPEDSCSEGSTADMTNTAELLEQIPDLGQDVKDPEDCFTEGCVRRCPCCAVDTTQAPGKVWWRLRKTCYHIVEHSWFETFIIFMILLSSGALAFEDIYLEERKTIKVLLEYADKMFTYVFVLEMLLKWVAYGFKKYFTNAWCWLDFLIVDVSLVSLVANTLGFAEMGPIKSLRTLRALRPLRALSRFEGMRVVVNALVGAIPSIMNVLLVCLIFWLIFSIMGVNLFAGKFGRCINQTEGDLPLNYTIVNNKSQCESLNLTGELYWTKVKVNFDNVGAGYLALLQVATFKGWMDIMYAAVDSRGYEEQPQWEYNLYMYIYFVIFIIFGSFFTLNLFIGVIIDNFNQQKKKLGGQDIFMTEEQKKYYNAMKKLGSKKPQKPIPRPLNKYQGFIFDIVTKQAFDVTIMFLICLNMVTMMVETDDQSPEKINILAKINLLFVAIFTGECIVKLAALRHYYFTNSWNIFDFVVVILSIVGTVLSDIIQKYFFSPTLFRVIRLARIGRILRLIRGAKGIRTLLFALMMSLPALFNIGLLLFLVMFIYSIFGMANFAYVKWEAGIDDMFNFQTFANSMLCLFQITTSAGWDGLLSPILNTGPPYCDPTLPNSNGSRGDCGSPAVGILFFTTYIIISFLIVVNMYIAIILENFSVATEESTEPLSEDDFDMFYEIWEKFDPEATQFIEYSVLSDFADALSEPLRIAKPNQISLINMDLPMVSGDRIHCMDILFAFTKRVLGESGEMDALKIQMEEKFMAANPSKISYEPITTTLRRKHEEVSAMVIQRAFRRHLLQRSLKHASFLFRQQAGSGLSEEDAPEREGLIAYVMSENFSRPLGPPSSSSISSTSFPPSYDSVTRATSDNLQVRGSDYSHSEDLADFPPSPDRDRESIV
Experimental: as §1
0.1 μM ATX-II was omitted from the vehicle control solution used during initial gigaohm seal formation, transition to whole-cell patch clamp configuration and preliminary baseline recording before activation of late Nav1.5 current with 0.1 μM ATX-II. […] Positive Control Article: • Name: Ranolazine dihydrochloride • Source: Tocris • Batch Number: 2A/215231 • Molecular Weight: 509.47 g/mol • Purity: 98.7% • Storage Conditions: Room temperature • Rationale for Selection: Previous results have shown that 100 μM ranolazine dihydrochloride inhibits INa,L by approximately 85% End Blocker • Name: Lidocaine • Source: Sigma-Aldrich • Lot Number: MKBX2132V • Molecular Weight (g/mol): 234.34 • Storage Conditions: Room temperature • Rationale for Selection: Lidocaine is an inhibitor of peak hNav1.5 and late hNav1.5 currents. Each recording will end with application of 2 mM lidocaine to determine the amplitude of endogenous currents. […]
Electrophysiological Procedures: Cells were superfused with vehicle control solution without ATX-II (HB-PS+0.3% DMSO) until after whole-cell configuration was achieved and a stable baseline current was recorded. […]

[2] = as stated by the drug label; cited from earlier work
hERG potassium channel = hERG potassium channel (Homo sapiens, UniProt Q12809); test: in vitro; conditions: human, pH 7.4
hERG potassium channel, sequence (Q12809 whole entry): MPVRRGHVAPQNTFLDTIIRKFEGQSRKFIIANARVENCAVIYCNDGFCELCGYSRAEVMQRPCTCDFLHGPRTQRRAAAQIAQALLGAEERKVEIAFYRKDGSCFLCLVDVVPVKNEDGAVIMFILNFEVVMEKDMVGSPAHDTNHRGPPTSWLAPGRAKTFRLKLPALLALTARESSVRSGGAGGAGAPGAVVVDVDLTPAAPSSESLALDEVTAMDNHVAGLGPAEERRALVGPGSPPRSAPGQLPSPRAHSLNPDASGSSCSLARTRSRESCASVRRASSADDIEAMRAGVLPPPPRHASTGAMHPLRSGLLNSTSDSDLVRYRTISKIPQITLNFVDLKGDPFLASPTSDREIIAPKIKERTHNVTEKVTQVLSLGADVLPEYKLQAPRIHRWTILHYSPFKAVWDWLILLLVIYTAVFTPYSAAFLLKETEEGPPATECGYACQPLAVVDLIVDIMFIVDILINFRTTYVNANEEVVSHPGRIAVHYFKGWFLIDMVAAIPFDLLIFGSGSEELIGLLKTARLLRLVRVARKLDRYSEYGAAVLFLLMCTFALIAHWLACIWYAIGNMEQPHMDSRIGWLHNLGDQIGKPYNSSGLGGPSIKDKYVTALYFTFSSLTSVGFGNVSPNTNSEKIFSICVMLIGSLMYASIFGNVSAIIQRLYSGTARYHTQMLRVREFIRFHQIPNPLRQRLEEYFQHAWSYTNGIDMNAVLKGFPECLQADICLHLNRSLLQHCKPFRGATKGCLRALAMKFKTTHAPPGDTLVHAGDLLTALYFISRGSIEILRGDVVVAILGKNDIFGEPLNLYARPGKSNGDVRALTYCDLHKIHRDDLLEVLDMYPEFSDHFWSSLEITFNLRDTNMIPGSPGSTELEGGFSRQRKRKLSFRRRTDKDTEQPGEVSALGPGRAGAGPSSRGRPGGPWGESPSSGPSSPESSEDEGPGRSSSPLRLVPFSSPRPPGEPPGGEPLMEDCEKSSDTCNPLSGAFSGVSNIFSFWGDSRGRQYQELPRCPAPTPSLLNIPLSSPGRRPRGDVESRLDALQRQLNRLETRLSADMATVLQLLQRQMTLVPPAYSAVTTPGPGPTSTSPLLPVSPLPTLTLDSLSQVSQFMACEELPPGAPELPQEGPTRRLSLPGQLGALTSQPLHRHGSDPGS
Experimental: Each cell acted as its own control.
Temperature was measured using a thermistor probe in the recording chamber.

[3] = target: T1, late hNav1.5 channel current; conditions: Oliveira, et al., J. Biol. Chem. 279 (2004); read-out: EC50 for increase of INa,L; cited from earlier work

CC(C)COc1ccc(CNC(=O)N(Cc2ccc(F)cc2)C2CCN(C)CC2)cc1 [Pimavanserin]
IC50 (hCav1.2/β2/α2δ channels; manual patch clamp, room temperature, read-out: CaV 1.2 IC50): 1200 nM | IC50 ([1]; read-out: NaV 1.5 IC50): 1200 nM | effect on QT interval [2]: prolongs the QT interval

COc1cc(N)c(Cl)cc1C(=O)NC1CCN(CCCOc2ccc(F)cc2)CC1OC (stereo not shown) [cisapride, reference compound]
inhibition at 0.09 µM (hERG potassium channel): ~80%

COC(=O)C1=C(C)NC(C)=C(C(=O)OC)C1c1ccccc1[N+](=O)[O-] [nifedipine, reference compound]
inhibition at 0.1 µM (hCav1.2/β2/α2δ channels; 0.1 μM, positive control, previous results, read-out: inhibition of hCav1.2 current): ~90%

COc1ccccc1OCC(O)CN1CCN(CC(=O)Nc2c(C)cccc2C)CC1 (stereo not shown) [ranolazine dihydrochloride, Ranolazine dihydrochloride]
inhibition at 100 µM ([1]; HEK293, 100 μM, positive control, previous results, read-out: inhibition of INa,L): ~85%

ATX-II: "Late hNav1.5 Current Agonist"; "ATX-II increases INa,L"; Molecular Weight 4935; Source: Alomone Labs
EC50 [3]: ~4 nM
